± gives the expanded uncertainty stated by the source.
Conditions: 298.15 K; 101.33 kPa; Liquid

In order of falling mass density:
1. COCCOCCOCCOCCOC [2,5,8,11,14-pentaoxapentadecane]  1007.12 ± 0.53 kg/m3
2. COCCOCCOCCOC [2,5,8,11-tetraoxadodecane]  980.625 ± 0.52 kg/m3
3. CCCCCCCCCCCCCC [tetradecane]  759.274 ± 0.51 kg/m3
4. CCCCCCCCCC [decane]  726.357 ± 0.83 kg/m3
5. CCCCCCCC [octane]  698.548 ± 0.53 kg/m3
6. CCCCCCC [heptane]  679.542 ± 0.45 kg/m3

— the NIST ThermoML archive (doi:10.1021/je049903o)
